# Test results from patent publication US20030129193A1 (priority 2001, published 2003).
# Tests used:
# [1] = test system: bEnd 3 cells; assay: Cell bound coagulation assay, stimulated endothelial cells; assay type: cell-based, mouse; details: for Factor Xa generation: mix with 0.5 μg/ml factor VIIa; for Factor Xa generation due to Factor VIIa production: mix with 2 μg/ml factor VII and 0.01 μg/ml factor VIIa, factor VII background subtracted
# Method: To assay the coagulation induction of stimulated versus unstimulated endothelial cells, bEnd 3 cells were seeded in 48 well tissue culture plates at a density of 1×10^4 cells per well and allowed to adhere overnight. Cells were stimulated with endotoxin (0.5 μg/ml and 10 μg/ml) or TNFα (500 U/ml) for 4 h at 37° C. […] After incubation for 45 min at room temperature, cells were washed and incubated with various coagulation factor mixes as follows: (1) 0.5 μg/ml factor VIIa in a mix containing 2.8 μg/ml factor IX, 3.4 μg/ml factor X, 50 μM phospholipids, in calcium buffer (as specified above); (2) 0.01 μg/ml factor VIIa in a mix as in (1); (3) 2 μg/ml factor VII (Calbiochem-Novabiochem, San Diego, Calif.) in a mix as in (1); (4) 2 […] factor VII, 0.01 μg/ml factor VIIa in a mix as in (1). The supernatant of wells was transferred into a 96 well ELISA plate. Substrate S2765 was added and Factor Xa generation measured alongside different concentrations of Factor Xa standard (7 nkatS2222; 0.7 nkatS2222; 0.07 nkatS2222). OD405nm values were calculated as nkatS2222 Factor Xa from the Factor Xa standard curve.
# bEnd 3 cells were seeded in 48 well tissue culture plates at a density of 1×10^4 cells per well and allowed to adhere overnight. Cells were stimulated with endotoxin (0.5 μg/ml and 10 μg/ml) or TNFα (500 U/ml) for 4 h at 37° C. […] After incubation for 45 min at room temperature, cells were washed and incubated with coagulation factor mix as follows: 0.5 μg/ml factor VIIa in a mix containing 2.8 μg/ml factor IX, 3.4 μg/ml factor X, 50 μM phospholipids, in calcium buffer; supernatant of wells was transferred into a 96 well ELISA plate. Substrate S2765 was added and Factor Xa generation measured alongside different concentrations of Factor Xa standard (7 nkatS2222; 0,7 nkatS2222; 0,07 nkatS2222). OD405nm values were calculated as nkatS2222 Factor Xa from the Factor Xa standard curve.
# [2] = test system: factor X; details: appropriate phospholipid membrane environment; cited from earlier work
# [3] = test system: thrombin-antithrombin-complexes (TAT); assay: Assessment of coagulation parameters: TAT; assay type: in vivo, mice; details: plasma, three days after i.v. treatment, tTF alone
# Method: At the time of autopsy, citrated blood was sampled from the vena cava and thrombocyte-free plasma was prepared by centrifugation. The plasma was stored at −80° C. until further analysis. Thrombin-Antithrombin-complexes were detected with the Enzygnost® TAT micro-assay (Dade-Behring, Marburg, Germany) according to the manufacturer's instructions. ATIII levels were determined using the Coamatic® antithrombin-assay (Haemochrom, Essen, Germany) following the manufacturer's instructions. Changes in the blood levels of thrombin and plasmin were detected by mixing citrated plasma with the respective chromogenic substrates S2238 and S2403 (Haemochrom, Essen, Germany) and measuring the increase of the absorption at 405 nm by an ELISA reader.
# [4] = test system: C1300 Muγ mouse neuroblastoma; assay: In vivo tumor thrombosis and anti-tumor effects, C1300 (Muγ); parameters: species or system BALB/c nu/nu mice
# [5] = Clinical signs of toxicity and histology of normal organs; assay type: in vivo, SCID mice; details: for Symptoms: tTF alone
# Method: (§1) Mice were closely observed after treatment for clinical signs of toxicity and clinical status was documented at defined time points (5 minutes, 10 minutes, 15 minutes, 30 minutes, 1 hour, 2 hours, 24 hours, 48 hours, 72 hours). Blood samples were taken from the tail vein at 1 hour, 2 hours and 24 hours to measure TNFα blood levels. Three days after treatment, the mice were anesthetized, blood samples were taken from the vena cava for coagulation tests, and an autopsy was performed to document any changes in gross pathology. Tumors, lymph node metastases and the major normal organs (heart, lung, brain, liver, kidney, colon, spleen, pancreas) were harvested and prepared for histological analysis.
# Tissue samples harvested at the time of autopsy were fixed in 3% NBF (normal buffered formalin) and embedded in paraffin wax. Tissue blocs were cut, dewaxed and stained with hematoxilin and eosin (H&E). Tissue sections were analyzed on a light microscope by two independent investigators and histological findings were documented. Tumor sections with necrotic areas were scanned with a GS-700 imaging densitometer (Biorad, Hercules, Calif.) and areas of necrosis were calculated as % of total section area. Statistical Analysis was performed using SPSS software (SPSS Science Software, Erkrath, Germany) applying the Mann-Whitney-U-test for ungrouped data.
# [6] = test system: factor X; assay: Cell free two-stage coagulation assay; assay type: biochemical; details: Factor Xa generation, absorption at 405 nm
# Method: In vitro coagulation activity was tested in a cell free two-stage coagulation assay. Negatively charged phospholipids at a final concentration of 50 μM (phosphatidylserine and phosphatidylcholine from Sigma, Taufkirchen, Germany) in calcium buffer (50 mM Tris pH=8.1, 150 mM NaCl, 2 mg/ml BSA, 5 mM Ca^++) were mixed with Factor VIIa (Sigma, Taufkirchen, Germany) at 10 nM and with samples or controls and incubated for five min at 37° C. Factor X was added to a final concentration of 30 nM and samples were incubated for 5 min at room temperature. Finally, the chromogenic substrate S2765 (Haemochrom, Essen, Germany) was added in a 100 mM EDTA solution. Factor Xa generation as a measure of Tissue Factor activity was determined by the increase in the absorption at 405 nm.
# Negatively charged phospholipids at a final concentration of 50 μM (phosphatidylserine and phosphatidylcholine from Sigma, St. Louis, Mo.) in calcium buffer (50 mM Tris pH=8.1, 150 mM NaCl, 2 mg/ml BSA, 5 mM Ca^++) were mixed with Factor VIIa (Sigma. St. Louis, Mo.) at 10 nM and with samples or controls and incubated for five minutes at 37° C. Factor X (Sigma, St. Louis, Mo.) was added to a final concentration of 30 nM and samples were incubated for 5 minutes at room temperature. […] Factor Xa generation as a measure of tissue factor activity was determined by the increase in the absorption at 405 nm.
# [7] = test system: TNFα; assay: TNFα serum levels in treated animals; assay type: in vivo, mice; details: tTF containing no endotoxin (n=6), any time point
# Method: as §1
# TNFα levels in serum were determined using the Quantikine-M kit (R&D Systems, Minneapolis, Minn.) according to the manufacturer's instructions.
substance,measurement,setting,value
tTF: extracellular domain of the mature Tissue Factor protein (amino acid 1-219),Factor Xa generation,[1]; stimulation with 0.5 μg/ml LPS,2.00 nkats2222
same,Factor Xa generation due to Factor VIIa production,[1]; stimulation with 0.5 μg/ml LPS,3.00 nkats2222
same,Factor Xa generation,[1]; stimulation with 10 μg/ml LPS,2.91 nkats2222
same,Factor Xa generation,[1]; stimulation with Medium,0.40 nkats2222
same,Factor Xa generation due to Factor VIIa production,[1]; stimulation with Medium,0.70 nkats2222
same,Factor Xa generation,[1]; stimulation with TNFα (500 U/ml),0.67 nkats2222
same,Factor Xa generation due to Factor VIIa production,[1]; stimulation with TNFα,1.91 nkats2222
same,"factor X-activating activity, times less than native transmembrane TF",[2],approximately 10^5 times
same,TAT,[3],25.4 ng/mL
same,thrombosis of tumor vessels,[4]; 24 hours after injection,practically all vessels in all regions of the tumor were thrombosed
same,effect on vessels in small tumors,[4]; small (<500 mm^3) C1300 and C1300 Muγ,largely unaffected
same,tumor growth,[4]; tTF alone or mixed with control bispecific antibodies vs antibodies or saline alone,grew significantly more slowly
same,histological findings in normal organs,"[5]; light microscopy, three days after treatment",No histological abnormalities
same,Symptoms,[5]; listed as TTF,None
same,Symptoms,[5]; listed as endotoxin-free tTF,no clinical signs of toxicity
same,coagulation activities before and after endotoxin removal,[6],the same
same,TNFα serum level,[7],could not be detected
